# From patent US20220202912A1, “Polypeptides in Preparation of Drugs for Treatment or Prevention of Rheumatoid Arthritis” (priority 2011, published 2022)
# “And” between values parts separate entries of the source, which are not always exact repeats. Equal entries are not always repeated.
# How the values were obtained:
# [1] = tested on: AIA transgenic TNF-luc mice; assay: adjuvant-induced arthritis in transgenic TNF-luc mice (swelling, scores, weight, HE staining); type: in vivo, BALB/c transgenic TNF-luc mice; parameters: right ankle swelling / left ankle swelling / left toe swelling / right toe swelling / changes of weight (added value): unit not given here; settings: Adalimumab 8 mg/kg
# Method: 8 animals are randomly divided into 4 groups (n=2), a normal group, a model group, a positive drug group and a test group. On day 0, the initial left and right ankle thicknesses, initial left and right foot palm thicknesses and initial left and right toe thicknesses of each group of mice are measured. On day 0, 50 μL/mouse complete Freund's adjuvant is injected into the bottom of the left toe of each group of mice, and the treatment is started after secondary inflammation appears in the right foot of each group of mice on day 17. On day 17, the normal group and the model group are hypodermically injected with 0.9% normal saline (0.2 mL/20 g of body weight), once every 2 days, 7 times in total. The positive drug Adalimumab group is hypodermically injected with Adalimumab (8 mg/kg of body weight), once every 15 days, once in total. The test group is hypodermically injected with mPEG-SC20k-HM-3 (20 mg/kg of body weight), once every 2 days, 7 times in total. The treatment lasts for 15 days. Then, medication is stopped for observation for one week, and the mice are killed one week later.
# On day 0, the initial ankle widths, foot palm widths and toe thicknesses of left and right feet are measured with a vernier caliper as initial values. Every 2 days, the left and right ankle widths, foot palm widths and toe thicknesses of each group of mice are measured separately with the vernier caliper, and compared with the initial values to calculate the changes in the swelling degree.
# The joints of the mouse paw are observed with naked eyes, and the joints are scored every 2 days from day 17. Scoring is performed in terms of level 0 to level 4, 5 levels in total.
# After the secondary inflammation appears, systemic scoring is performed every 2 days.
# Changes of expression of TNF-α and IL-6 are analyzed by HE staining and immunohistochemistry in the ankle joint, spleen and thymus of the mice. Observation and photographing are performed under the FOVs of ×200 and ×400 times respectively, 5 FOVs are taken randomly for each picture, and data statistics is performed.
# TNF-α = assay: in vivo imaging of TNF-α expression, carrageenan-induced TNF-luc mice; parameters: species or system BALB/c transgenic TNF-luc mice; settings: Adalimumab 8 mg/kg, mPEG-SC20k-HM-3 20 mg/kg sc
# Method: At 8 time points, hour 0, hour 2, hour 4, hour 8, hour 12, hour 24, hour 48 and hour 72 after modeling, fluorescein is injected intraperitoneally into each group of mice. After the mice are lightly anesthetized with ether, the mice are fixed within 5-20 min and put into an in vivo imager, the imager is covered with an instrument lid, on-fluro and om-photo names in the desktop imaging interface of the computer are clicked, and the expose button is clicked to complete the fluorescence and white light photos of mice in vivo imaging. The specific imaging principle, operation steps, image processing and output are the same as those in the previous embodiment.
# In vivo imaging results of mice are processed with Carestream Molecular Imaging Software 5.3, and the luminous area is used as the determination of results. The fluorescence areas of the groups after optimization are compared.
# (1) Imaging principle: Fluorescein substrate is injected intraperitoneally, and binds to luciferase carried on TNF-α protein to catalyze luminescence. Through the Luciferase fluorescent reporter group on TNF, the change of the fluorescence area in mice is observed, and the expression of TNF-α is evaluated, so as to evaluate the impact of mPEG-SC20k-HM-3 on the expression of TNF-α.
# (2) Operation steps: Start the Carestreama in vivo imager, open the MI software, click the Capture button, and set photographing conditions. In the on-flour fluorescence mode, set the parameters X Binning. 2 pixels, Y Binning. 2 pixels; Illumination Source: Multi-wavelength; f-stop: 2.50; field of view (FOV) (mm): 120; focal plane (mm): Tray. Excitation filter: 430 nm, emission filter: 535 nm; exposure time: 30s. Click the Expose button to photograph fluorescence. Under the om-photo name, set the parameters X Binning. 0 pixels, Y Binning. 0 pixels; Illumination Source: None; f-stop: 2.50; FOV (mm): 120; focal plane (mm): Tray. Excitation filter: 0 nm, emission filter: 0 nm; exposure time: 0.175 s. Click the Expose button to photograph white light.
# (3) Image processing and output: Analyze and adjust photos of fluorescence function imaging and white light structure imaging to the best, and the FOV is consistent. Click Window→Tie, Display→Invert, Image Display→overlay→Transparency for image stacking. In the image output process, in a navigation panel, click Annotation→Width/Heigh→Scale Analysis Image for setting, click Add Annotation Bar for adding a title, click Add Intensity Scale for adding a ruler, and set Horizontal, Size, Style, Number of Significant Dig, and Horizontal/Vertical Length. Output a picture in Tiff format.
# [2] = 0 d, before treatment (starts day 17), mPEG-SC20k-HM-3 20 mg/kg groups
# [3] = 1 d, before treatment (starts day 17), mPEG-SC20k-HM-3 20 mg/kg groups
# [4] = 3 d, before treatment (starts day 17), mPEG-SC20k-HM-3 20 mg/kg groups
# [5] = 6 d, before treatment (starts day 17), mPEG-SC20k-HM-3 20 mg/kg groups
# [6] = 9 d, before treatment (starts day 17), mPEG-SC20k-HM-3 20 mg/kg groups
# [7] = 12 d, before treatment (starts day 17), mPEG-SC20k-HM-3 20 mg/kg groups
# [8] = 16 d, before treatment (starts day 17), mPEG-SC20k-HM-3 20 mg/kg groups
# [9] = 17 d (treatment starts), mPEG-SC20k-HM-3 20 mg/kg sc
# [10] = 19 d, mPEG-SC20k-HM-3 20 mg/kg sc
# [11] = 20 d, mPEG-SC20k-HM-3 20 mg/kg sc
# [12] = 22 d, mPEG-SC20k-HM-3 20 mg/kg sc
# [13] = 23 d, mPEG-SC20k-HM-3 20 mg/kg sc
# [14] = 25 d, mPEG-SC20k-HM-3 20 mg/kg sc
# [15] = 26 d, mPEG-SC20k-HM-3 20 mg/kg sc
# [16] = 28 d, mPEG-SC20k-HM-3 20 mg/kg sc
# [17] = 29 d, mPEG-SC20k-HM-3 20 mg/kg sc
# [18] = 31 d, mPEG-SC20k-HM-3 20 mg/kg sc
# [19] = 32 d, mPEG-SC20k-HM-3 20 mg/kg sc
substance,measurement,setting,value
Adalimumab [reference compound],changes of weight (added value),[1]; [2],0.00 ± 0.00
same,left ankle swelling,[1]; [2],0.000 ± 0.000
same,left foot (palm) swelling,[1]; [2],0.000 ± 0.000
same,left toe swelling,[1]; [2],0.000 ± 0.000
same,left ankle swelling,[1]; [3],0.239 ± 0.033
same,left foot (palm) swelling,[1]; [3],0.236 ± 0.062
same,left toe swelling,[1]; [3],0.326 ± 0.028
same,changes of weight (added value),[1]; [4],0.07 ± 0.15
same,left ankle swelling,[1]; [4],0.262 ± 0.071
same,left foot (palm) swelling,[1]; [4],0.289 ± 0.016
same,left toe swelling,[1]; [4],0.323 ± 0.086
same,changes of weight (added value),[1]; [5],0.09 ± 0.54
same,left ankle swelling,[1]; [5],0.226 ± 0.023
same,left foot (palm) swelling,[1]; [5],0.272 ± 0.057
same,left toe swelling,[1]; [5],0.272 ± 0.076
same,changes of weight (added value),[1]; [6],0.07 ± 0.25
same,left ankle swelling,[1]; [6],0.260 ± 0.020
same,left foot (palm) swelling,[1]; [6],0.302 ± 0.003
same,left toe swelling,[1]; [6],0.298 ± 0.122
same,changes of weight (added value),[1]; [7],0.25 ± 0.83
same,left ankle swelling,[1]; [7],0.264 ± 0.018
same,left foot (palm) swelling,[1]; [7],0.295 ± 0.021
same,left toe swelling,[1]; [7],0.328 ± 0.079
same,changes of weight (added value),"[1]; 15 d, before treatment (starts day 17), mPEG-SC20k-HM-3 20 mg/kg groups",0.16 ± 0.66
same,left ankle swelling,[1]; [8],0.265 ± 0.021
same,left foot (palm) swelling,[1]; [8],0.271 ± 0.064
same,left toe swelling,[1]; [8],0.328 ± 0.065
same,right ankle swelling,[1]; [8],0.010 ± 0.006
same,right foot palm swelling,[1]; [8],0.010 ± 0.006
same,right toe swelling,[1]; [8],0.011 ± 0.033
same,joint index score,[1]; [9],7.50 ± 0.70
same,whole body (systemic) score,[1]; [9],7.00 ± 1.40
same,changes of weight (added value),[1]; [10],0.44 ± 0.60
same,left ankle swelling,[1]; [10],0.254 ± 0.018
same,left foot (palm) swelling,[1]; [10],0.247 ± 0.078
same,left toe swelling,[1]; [10],0.311 ± 0.033
same,right ankle swelling,[1]; [10],0.010 ± 0.014
same,right foot palm swelling,[1]; [10],0.029 ± 0.001
same,right toe swelling,[1]; [10],0.012 ± 0.037
same,joint index score,[1]; [11],7.50 ± 0.70
same,whole body (systemic) score,[1]; [11],6.50 ± 2.10
same,changes of weight (added value),[1]; [12],0.62 ± 0.48
same,left ankle swelling,[1]; [12],0.235 ± 0.013
same,left foot (palm) swelling,[1]; [12],0.249 ± 0.126
same,left toe swelling,[1]; [12],0.248 ± 0.136
same,right foot palm swelling,[1]; [12],0.004 ± 0.003
same,right toe swelling,[1]; [12],0.002 ± 0.042
same,joint index score,[1]; [13],8.00 ± 0.00
same,whole body (systemic) score,[1]; [13],4.50 ± 2.10
same,changes of weight (added value),[1]; [14],0.55 ± 0.02
same,left ankle swelling,[1]; [14],0.218 ± 0.028
same,left foot (palm) swelling,[1]; [14],0.234 ± 0.040
same,left toe swelling,[1]; [14],0.309 ± 0.058
same,right foot palm swelling,[1]; [14],0.013 ± 0.016
same,right toe swelling,[1]; [14],0.004 ± 0.040
same,joint index score,[1]; [15],6.50 ± 0.70
same,whole body (systemic) score,[1]; [15],4.00 ± 1.40
same,changes of weight (added value),[1]; [16],0.77 ± 0.33
same,left foot (palm) swelling,[1]; [16],0.258 ± 0.042
same,left toe swelling,[1]; [16],0.285 ± 0.075
same,right foot palm swelling,[1]; [16],0.008 ± 0.006
same,right toe swelling,[1]; [16],0.009 ± 0.035
same,joint index score,[1]; [17],6.50 ± 0.70
same,whole body (systemic) score,[1]; [17],4.00 ± 1.40
same,changes of weight (added value),[1]; [18],1.02 ± 0.98
same,left foot (palm) swelling,[1]; [18],0.235 ± 0.061
same,left toe swelling,[1]; [18],0.290 ± 0.023
same,right foot palm swelling,[1]; [18],0.010 ± 0.003
same,right toe swelling,[1]; [18],0.003 ± 0.021
same,joint index score,[1]; [19],6.50 ± 0.70
same,whole body (systemic) score,[1]; [19],3.50 ± 0.70
same,HE staining of ankle joints: pathological symptoms vs model group,[1]; mPEG-SC20k-HM-3 20 mg/kg,relieved to some extent
same,Fluorescence intensity (in vivo imaging),TNF-α; 0 h,18.048 ± 4.770 ×10^5
same,Fluorescence intensity (in vivo imaging),TNF-α; 2 h,18.480 ± 4.887 ×10^5
same,Fluorescence intensity (in vivo imaging),TNF-α; 4 h,20.209 ± 2.261 ×10^5
same,Fluorescence intensity (in vivo imaging),TNF-α; 8 h,25.70±2.67 ×10^5 and 25.703 ± 2.668 ×10^5
same,Fluorescence intensity (in vivo imaging),TNF-α; 12 h,22.40±5.06 ×10^5 and 22.396 ± 5.065 ×10^5
same,Fluorescence intensity (in vivo imaging),TNF-α; 24 h,13.89±8.53 ×10^5 and 13.891 ± 0.853 ×10^5
same,Fluorescence intensity (in vivo imaging),TNF-α; 48 h,14.76±3.58 ×10^5 and 14.765 ± 3.580 ×10^5
same,Fluorescence intensity (in vivo imaging),TNF-α; 72 h,19.87±3.92 ×10^5 and 19.868 ± 3.924 ×10^5
